Patent US11225482B2, “Dihydropyrrolopyrimidines for the treatment and prophylaxis of hepatitis B virus infection” (Hoffmann-La Roche Inc., priority 2017, dated 2022)

Key:
[1] = test system: HBsAg; test: HBsAg assay (CLIA) in HepG2.2.15 cells; type: cell-based, HBV; conditions: Hepatitis B virus, HepG2.2.15, read-out: IC50 (HBsAg assay)
Procedure: (§1) HepG2.2.15 cells (Acs et al. Proc Natl Acad Sci USA, 84, (1987), 4641-4), a constitutively HBV-expressing cell line were cultured in DMEM+Glutamax-I medium (Invitrogen, Carlsbad, Calif., USA), supplemented with 10% fetal bovine serum (Invitrogen) and G418 (Invitrogen) at a final concentration of 200 mg/L and maintained in 5% CO2 at 37° C.
HepG2.2.15 cells were seeded in duplicate into white, 96-well plates at 1.5×10^4 cells/well. The cells were treated with a three-fold serial dilution series of the compounds in DMSO. The final DMSO concentration in all wells was 1% and DMSO was used as no drug control.
The HBsAg chemiluminescence immunoassay (CLIA) kit (Autobio Diagnostics Co., Zhengzhou, China, Catalog number: CL0310-2) was used to measure the levels of secreted HBV antigens semi-quantitatively. For the detection 50 μL/well culture supernatant was used and HBsAg was quantified using HBsAg chemiluminescence immunoassay (CLIA) kit (Autobio Diagnostics Co., Zhengzhou, China, Catalog number: CL0310-2), 50 μL of the supernatant was transferred to the CLIA assay plate and 50 μL of enzyme conjugate reagent was added into each well. The plates were sealed and gently agitated for 1 hour at room temperature. The supernatant-enzyme-mixture was discarded and wells were washed 6 times with 300 μL of PBS. The residual liquid was removed by plating the CLIA plate […] on absorbent tissue paper. 25 μL of substrates A and B were added to each well. Luminance was measured using a luminometer (Mithras LB 940 Multimode Microplate Reader) after 10 minutes incubation. Dose-response curves were generated and the IC50 value was extrapolated by using the E-WorkBook Suite (ID Business Solutions Ltd., Guildford, UK). The IC50 was defined as the compound concentration (or conditioned media log dilution) at which HBsAg secretion was reduced by 50% compared to the no drug control.

[2] = test system: HBV DNA; test: HBV DNA assay (real-time qPCR/TaqMan) in HepG2.2.15 cells; type: cell-based; conditions: Hepatitis B virus, 144 h, extracellular HBV DNA in supernatant, six days after initial administration, qPCR, read-out: IC50 (Anti HBV DNA production activity)
Procedure: as §1
The assay employs real-time qPCR (TaqMan) to directly measure extracellular HBV DNA copy number in the cell supernatant, HepG2.2.15 cells were plated in 96-well microtiter plates before treatment with complete medium (DMEM, Glutamax, 10% FBS, 1% Penicillin/Streptomycin, 250 μg/mL Genetycin, final DMSO concentration is 1%). Only the interior wells were utilized to reduce “edge effects” observed during cell culture, the exterior wells were filled with complete medium to help minimize sample evaporation. The HepG2.2.15 cells were treated 1 h later with various concentrations of a test compound in duplicate (top concentration used at 5 μM, 2 μM or 0.5 μM according to the HBsAg IC50 observed, with ⅓ successive dilutions (total of 10 dilutions). Six days following the initial administration of the test compound, the cell culture supernatant was collected; DNA extraction was performed by automated system (Magnapure) and then used in a real-time qPCR/TaqMan assay to determine HBV DNA copy numbers. Antiviral activity was calculated from the reduction in HBV DNA levels (IC50).

| Structure (SMILES) | IC50 [1] [nM] | IC50 [2] [nM] |
| --- | --- | --- |
| Cc1nc(C(=O)N2Cc3nc(-c4ncccn4)ncc3C2C)sc1C (centres unmarked) [Example 10, (4,5-Dimethylthiazol-2-yl)-(5-methyl-2-pyrimidin-2-yl-5,7-dihydropyrrolo[3,4-d]pyrimidin-6-yl)methanone] | 282 | 67.6 |
| CC1c2cnc(-c3ncccn3)nc2CN1C(=O)c1nn(C)c2ccccc12 (centres unmarked) [Example 12, (1-Methylindazol-3-yl)-(5-methyl-2-pyrimidin-2-yl-5,7-dihydropyrrolo[3,4-d]pyrimidin-6-yl)methanone] | 158 | 5.6 |
| Cc1c(C(=O)N2Cc3nc(-c4ncccn4)ncc3C2C)oc2ccccc12 (centres unmarked) [Example 21, (3-Methylbenzofuran-2-yl)-(5-methyl-2-pyrimidin-2-yl-5,7-dihydropyrrolo[3,4-d]pyrimidin-6-yl)methanone] | 219 | 26.2 |
| COc1cc(F)nc(N2Cc3nc(-c4ncccn4)ncc3C2C)c1 (centres unmarked) [Example 30, 6-(6-Fluoro-4-methoxy-2-pyridyl)-5-methyl-2-pyrimidin-2-yl-5,7-dihydropyrrolo[3,4-d]pyrimidine] | 50 | 6.5 |
| CC1c2cnc(-c3ncccn3)nc2CN1c1cc(N2CCCC2)cc(F)n1 (centres unmarked) [Example 40, 6-(6-Fluoro-4-pyrrolidin-1-yl-2-pyridyl)-5-methyl-2-pyrimidin-2-yl-5,7-dihydropyrrolo[3,4-d]pyrimidine] | 16 | – |
| CC1c2cnc(-c3ncccn3)nc2CN1c1cc(N2CCCCC2)cc(F)n1 (centres unmarked) [Example 41, 6-[6-Fluoro-4-(1-piperidyl)-2-pyridyl]-5-methyl-2-pyrimidin-2-yl-5,7-dihydropyrrolo[3,4-d]pyrimidine] | 41 | – |
| CC1c2cnc(-c3ncccn3)nc2CN1c1cc(N2CCOCC2)cc(F)n1 (centres unmarked) [Example 42, 4-[2-Fluoro-6-(5-methyl-2-pyrimidin-2-yl-5,7-dihydropyrrolo[3,4-d]pyrimidin-6-yl)-4-pyridyl]morpholine] | 40 | – |
| CC1c2cnc(-c3ncccn3)nc2CN1c1cc(N2CCNCC2)cc(F)n1 (centres unmarked) [Example 43, 6-(6-Fluoro-4-piperazin-1-yl-2-pyridyl)-5-methyl-2-pyrimidin-2-yl-5,7-dihydropyrrolo[3,4-d]pyrimidine] | 4270 | – |
| CC1c2cnc(-c3ncccn3)nc2CN1c1cc(N2CCN(S(C)(=O)=O)CC2)cc(F)n1 (centres unmarked) [Example 44, 6-[6-Fluoro-4-(4-methylsulfonylpiperazin-1-yl)-2-pyridyl]-5-methyl-2-pyrimidin-2-yl-5,7-dihydropyrrolo[3,4-d]pyrimidine] | 140 | – |
| CC1c2cnc(-c3ncccn3)nc2CN1c1cc(N2CCNC(=O)C2)cc(F)n1 (centres unmarked) [Example 45, 4-[2-Fluoro-6-(5-methyl-2-pyrimidin-2-yl-5,7-dihydropyrrolo[3,4-d]pyrimidin-6-yl)-4-pyridyl]piperazin-2-one] | 160 | – |
